Each block holds one molecule with its values, some of them ahead of it. Active and inactive are the calls of the source. The rule behind the calls is not given here.
How the values were obtained:
[1] = test system: MC-38; assay: Antitumor activity against C215 transfected MC38 cells implanted in C57BL/6 mouse assessed as inhibition of tumor growth at 30 mg/kg, po dosed daily for 15 days starting following day of tumor inoculation; type: functional, organism-based
[2] = Plasma concentration in C215 transfected MC38 cells implanted C57BL/6 mouse assessed as 2,5-dichloro-N-(6-chloro-4-hydroxypyridin-3-yl)thiophene-3-sulfonamide level at 1 mg/kg, iv dosed as cassette formulation and measured at 1 hr after post dose by LC-MS analysis; type: ADME, organism-based; conditions: in vivo
[3] = Plasma concentration in C215 transfected MC38 cells implanted C57BL/6 mouse assessed as 2,5-dichloro-N-(6-chloro-4-hydroxypyridin-3-yl)thiophene-3-sulfonamide level at 5 mg/kg, po dosed as cassette formulation and measured at 4 hrs after post dose by LC-MS analysis; type: ADME, organism-based; conditions: in vivo
[4] = Plasma concentration in C215 transfected MC38 cells implanted C57BL/6 mouse at 1 mg/kg, iv dosed as cassette formulation and measured at 1 hr after post dose by LC-MS analysis; type: ADME, organism-based
[5] = Plasma concentration in C215 transfected MC38 cells implanted C57BL/6 mouse at 5 mg/kg, po dosed as cassette formulation and measured at 7 hrs after post dose by LC-MS analysis; type: ADME, organism-based
[6] = Plasma concentration in C215 transfected MC38 cells implanted C57BL/6 mouse at 5 mg/kg, po dosed as cassette formulation and measured at 2 hrs after post dose by LC-MS analysis; type: ADME, organism-based
[7] = Plasma concentration in C215 transfected MC38 cells implanted C57BL/6 mouse at 1 mg/kg, iv dosed as cassette formulation and measured at 2 hrs after post dose by LC-MS analysis; type: ADME, organism-based
[8] = Plasma concentration in C215 transfected MC38 cells implanted C57BL/6 mouse at 1 mg/kg, iv dosed as cassette formulation and measured at 0.5 hrs after post dose by LC-MS analysis; type: ADME, organism-based
[9] = Plasma concentration in C215 transfected MC38 cells implanted C57BL/6 mouse assessed as 2,5-dichloro-N-(6-chloro-4-hydroxypyridin-3-yl)thiophene-3-sulfonamide level at 1 mg/kg, iv dosed as cassette formulation and measured at 0.5 hrs after post dose by LC-MS analysis; type: ADME, organism-based; conditions: in vivo
[10] = Plasma concentration in C215 transfected MC38 cells implanted C57BL/6 mouse assessed as 2,5-dichloro-N-(6-chloro-4-hydroxypyridin-3-yl)thiophene-3-sulfonamide level at 1 mg/kg, iv dosed as cassette formulation and measured at 4 hrs after post dose by LC-MS analysis; type: ADME, organism-based; conditions: in vivo
[11] = Plasma concentration in C215 transfected MC38 cells implanted C57BL/6 mouse assessed as 2,5-dichloro-N-(6-chloro-4-hydroxypyridin-3-yl)thiophene-3-sulfonamide level at 5 mg/kg, po dosed as cassette formulation and measured at 7 hrs after post dose by LC-MS analysis; type: ADME, organism-based; conditions: in vivo
[12] = Plasma concentration in C215 transfected MC38 cells implanted C57BL/6 mouse assessed as 2,5-dichloro-N-(6-chloro-4-hydroxypyridin-3-yl)thiophene-3-sulfonamide level at 1 mg/kg, iv dosed as cassette formulation and measured at 2 hrs after post dose by LC-MS analysis; type: ADME, organism-based; conditions: in vivo
[13] = Plasma concentration in C215 transfected MC38 cells implanted C57BL/6 mouse at 5 mg/kg, po dosed as cassette formulation and measured at 1 hr after post dose by LC-MS analysis; type: ADME, organism-based
[14] = Plasma concentration in C215 transfected MC38 cells implanted C57BL/6 mouse at 5 mg/kg, po dosed as cassette formulation and measured at 0.5 hrs after post dose by LC-MS analysis; type: ADME, organism-based
[15] = Plasma concentration in C215 transfected MC38 cells implanted C57BL/6 mouse at 5 mg/kg, po dosed as cassette formulation and measured at 4 hrs after post dose by LC-MS analysis; type: ADME, organism-based
[16] = Plasma concentration in C215 transfected MC38 cells implanted C57BL/6 mouse assessed as 2,5-dichloro-N-(6-chloro-4-hydroxypyridin-3-yl)thiophene-3-sulfonamide level at 5 mg/kg, po dosed as cassette formulation and measured at 0.5 hrs after post dose by LC-MS analysis; type: ADME, organism-based; conditions: in vivo
[17] = Plasma concentration in C215 transfected MC38 cells implanted C57BL/6 mouse assessed as 2,5-dichloro-N-(6-chloro-4-hydroxypyridin-3-yl)thiophene-3-sulfonamide level at 1 mg/kg, iv dosed as cassette formulation and measured at 0.083 hrs after post dose by LC-MS analysis; type: ADME, organism-based; conditions: in vivo
[18] = Plasma concentration in C215 transfected MC38 cells implanted C57BL/6 mouse at 1 mg/kg, iv dosed as cassette formulation and measured at 4 hrs after post dose by LC-MS analysis; type: ADME, organism-based
[19] = Plasma concentration in C215 transfected MC38 cells implanted C57BL/6 mouse at 1 mg/kg, iv dosed as cassette formulation and measured at 7 hrs after post dose by LC-MS analysis; type: ADME, organism-based
[20] = Plasma concentration in C215 transfected MC38 cells implanted C57BL/6 mouse assessed as 2,5-dichloro-N-(6-chloro-4-hydroxypyridin-3-yl)thiophene-3-sulfonamide level at 5 mg/kg, po dosed as cassette formulation and measured at 1 hr after post dose by LC-MS analysis; type: ADME, organism-based; conditions: in vivo
[21] = Plasma concentration in C215 transfected MC38 cells implanted C57BL/6 mouse assessed as 2,5-dichloro-N-(6-chloro-4-hydroxypyridin-3-yl)thiophene-3-sulfonamide level at 1 mg/kg, iv dosed as cassette formulation and measured at 7 hrs after post dose by LC-MS analysis; type: ADME, organism-based; conditions: in vivo
[22] = Plasma concentration in C215 transfected MC38 cells implanted C57BL/6 mouse at 1 mg/kg, iv dosed as cassette formulation and measured at 0.083 hrs after post dose by LC-MS analysis; type: ADME, organism-based
[23] = Plasma concentration in C215 transfected MC38 cells implanted C57BL/6 mouse assessed as 2,5-dichloro-N-(6-chloro-4-hydroxypyridin-3-yl)thiophene-3-sulfonamide level at 5 mg/kg, po dosed as cassette formulation and measured at 2 hrs after post dose by LC-MS analysis; type: ADME, organism-based; conditions: in vivo
[24] = Plasma concentration in C215 transfected MC38 cells implanted C57BL/6 mouse assessed as N-(5-chloro-3-hydroxypyridin-2-yl)-1-(3,5-dichlorophenyl)methanesulfonamide level at 1 mg/kg, iv dosed as cassette formulation and measured at 7 hrs after post dose by LC-MS analysis; type: ADME, organism-based; conditions: in vivo
[25] = Plasma concentration in C215 transfected MC38 cells implanted C57BL/6 mouse assessed as N-(5-chloro-3-hydroxypyridin-2-yl)-1-(3,5-dichlorophenyl)methanesulfonamide level at 1 mg/kg, iv dosed as cassette formulation and measured at 1 hr after post dose by LC-MS analysis; type: ADME, organism-based; conditions: in vivo
[26] = Plasma concentration in C215 transfected MC38 cells implanted C57BL/6 mouse assessed as N-(5-chloro-3-hydroxypyridin-2-yl)-1-(3,5-dichlorophenyl)methanesulfonamide level at 1 mg/kg, iv dosed as cassette formulation and measured at 0.083 hrs after post dose by LC-MS analysis; type: ADME, organism-based; conditions: in vivo
[27] = Plasma concentration in C215 transfected MC38 cells implanted C57BL/6 mouse assessed as N-(5-chloro-3-hydroxypyridin-2-yl)-1-(3,5-dichlorophenyl)methanesulfonamide level at 5 mg/kg, po dosed as cassette formulation and measured at 1 hr after post dose by LC-MS analysis; type: ADME, organism-based; conditions: in vivo
[28] = Plasma concentration in C215 transfected MC38 cells implanted C57BL/6 mouse assessed as N-(5-chloro-3-hydroxypyridin-2-yl)-1-(3,5-dichlorophenyl)methanesulfonamide level at 5 mg/kg, po dosed as cassette formulation and measured at 4 hrs after post dose by LC-MS analysis; type: ADME, organism-based; conditions: in vivo
[29] = Plasma concentration in C215 transfected MC38 cells implanted C57BL/6 mouse assessed as N-(5-chloro-3-hydroxypyridin-2-yl)-1-(3,5-dichlorophenyl)methanesulfonamide level at 1 mg/kg, iv dosed as cassette formulation and measured at 4 hrs after post dose by LC-MS analysis; type: ADME, organism-based; conditions: in vivo
[30] = Plasma concentration in C215 transfected MC38 cells implanted C57BL/6 mouse assessed as N-(5-chloro-3-hydroxypyridin-2-yl)-1-(3,5-dichlorophenyl)methanesulfonamide level at 5 mg/kg, po dosed as cassette formulation and measured at 2 hrs after post dose by LC-MS analysis; type: ADME, organism-based; conditions: in vivo
[31] = Plasma concentration in C215 transfected MC38 cells implanted C57BL/6 mouse assessed as N-(5-chloro-3-hydroxypyridin-2-yl)-1-(3,5-dichlorophenyl)methanesulfonamide level at 1 mg/kg, iv dosed as cassette formulation and measured at 2 hrs after post dose by LC-MS analysis; type: ADME, organism-based; conditions: in vivo
[32] = Plasma concentration in C215 transfected MC38 cells implanted C57BL/6 mouse assessed as N-(5-chloro-3-hydroxypyridin-2-yl)-1-(3,5-dichlorophenyl)methanesulfonamide level at 1 mg/kg, iv dosed as cassette formulation and measured at 0.5 hrs after post dose by LC-MS analysis; type: ADME, organism-based; conditions: in vivo
[33] = Plasma concentration in C215 transfected MC38 cells implanted C57BL/6 mouse assessed as N-(5-chloro-3-hydroxypyridin-2-yl)-1-(3,5-dichlorophenyl)methanesulfonamide level at 5 mg/kg, po dosed as cassette formulation and measured at 7 hrs after post dose by LC-MS analysis; type: ADME, organism-based; conditions: in vivo
[34] = Plasma concentration in C215 transfected MC38 cells implanted C57BL/6 mouse assessed as N-(5-chloro-3-hydroxypyridin-2-yl)-1-(3,5-dichlorophenyl)methanesulfonamide level at 5 mg/kg, po dosed as cassette formulation and measured at 0.5 hrs after post dose by LC-MS analysis; type: ADME, organism-based; conditions: in vivo

Structure (SMILES): O=S(=O)(Nc1cnccc1O)c1cc(Cl)sc1Cl
TGI [1]: Active

concentration [2]: 190 nM
concentration [3]: 610 nM
concentration at 1 h [4]: 23700 nM
concentration at 7 h [5]: 50300 nM
concentration at 2 h [6]: 109000 nM
concentration at 2 h [7]: 17500 nM
concentration at 0.5 h [8]: 19300 nM
concentration [9]: 200 nM
concentration [10]: 180 nM
concentration [11]: 780 nM
concentration [12]: 210 nM
concentration at 1 h [13]: 91600 nM
concentration at 0.5 h [14]: 86800 nM
concentration at 4 h [15]: 47100 nM
concentration [16]: 460 nM
concentration [17]: 89 nM
concentration at 4 h [18]: 7800 nM
concentration at 7 h [19]: 2500 nM
concentration [20]: 490 nM
concentration [21]: 130 nM
concentration at 0.083 h [22]: 32200 nM
concentration [23]: 690 nM
Structure (SMILES): COc1cc(Cl)ncc1NS(=O)(=O)c1cc(Cl)sc1Cl

concentration [24]: 4 nM
concentration [25]: 3 nM
concentration [26]: 44 nM
concentration at 1 h [4]: 84 nM
concentration at 7 h [5]: 700 nM
concentration [27]: 26 nM
concentration at 2 h [6]: 1300 nM
concentration [28]: 12 nM
concentration [29]: 4 nM
concentration at 2 h [7]: 380 nM
concentration [30]: 21 nM
concentration at 0.5 h [8]: 550 nM
concentration [31]: 6 nM
concentration [32]: 5 nM
concentration at 1 h [13]: 1600 nM
concentration at 0.5 h [14]: 3600 nM
concentration at 4 h [15]: 850 nM
concentration [33]: 19 nM
concentration at 4 h [18]: 170 nM
concentration at 7 h [19]: 150 nM
concentration [34]: 45 nM
concentration at 0.083 h [22]: 6300 nM
Structure (SMILES): COc1cc(Cl)cnc1NS(=O)(=O)Cc1cc(Cl)cc(Cl)c1
